Patent publication US6291247A, “Methods of screening for factors that disrupt neurotrophin conformation and reduce neurotrophin biological activity” (priority 1996, dated 2001)
“Also recorded” adds a separate entry of the source. Bridges are numbered along the chain shown (N, C = ends).

How the values were obtained:
NGF = molecular target: T1, NGF (Mus musculus, UniProt P01139); assay: NGF protomer crosslinking with BS3 (NGF conformation), metal ions; assay type: biochemical
T1 construct: homodimer
Protocol: For crosslinking NGF […], 0.4 mM BS^3 was added to the mixture and incubated for 30 minutes at 25° C. […] For CD studies, NGF (50 μg/ml) was dissolved in 50 mM Tris-HCl buffer and spectra recorded using a computer controlled Jasco J-600 spectropolarimeter. Samples were acquired in the absence or presence of Zn^2+ (100 μM) at 22° C. in a 2 mm quartz cell averaged over eight scans. Modification of His residues by DEPC was carried out as previously described, where the molar excess of DEPC added and the extent of reaction was determined by evaluating the loss of binding activity of the modified product.

DRG neurons = assay: NGF-mediated neurite outgrowth of DRG neurons, metal ions; assay type: cell-based, chick; conditions: 50 and 100 μM
Protocol: Dissosiated cells enriched for sensory neurons were prepared from ED8 chick DRG as described (Dostaler, S. M. et al. Characterization of a distinctive motif of the low molecular weight neurotrophin receptor that modulates NGF-mediated neurite growth. Eur. J. Neurosci. 8, 870-879 (1996)). Neurons were seeded at a density of 800-1000 cells/well in Ham's F-12 containing 5% FCS and NGF at 10 pM into wells of Terasaki plates treated with polyysine. The cells were incubated with the indicated additives at 37° C. in a 5% CO2 atmosphere. The cells on the entire lower horizontal surface of the well were scored for neurite growth at 18-20 hours using an inverted microscope fitted with phase contrast optics. A neurite was scored if its caliber from the origin to terminal was constant and its length was equal to or greater than 1.5 cell body diameters. Neurite growth was corrected for background (no NGF).

p75^NTR = assay: 125I-BDNF binding to p75NTR; conditions: 100 μM Zn2+, n = 3; 120 min
Protocol: Full length (1-118) mouse NGF purified by HPLC from 2.5S NGF (purity greater than 95%) was obtained from Cedarlane Laboratories (Toronto, Ont). The iodination of NGF was performed as previously described (Sutter, A, Riopelle, R. J., Harris-Warrick, R. M. & Shooter, E. M. Nerve growth factor receptors. J. Biol. Chem. 254, 5972-5982 (1979)). […] PC12 cells were grown in RPMI with 10% heat inactivated donor horse serum and 5% fetal calf serum. Each data point was set up in a single tube containing ^125 I-NGF (at the required concentration), 400,000 cells (for a final call concentration of 10^6 /ml), BDNF (at 40 nM for TrkA binding) and NGF (at 10 nM for non-specific binding) as required. The tubes were incubated for 2 hr at 4° C. and 100 μl aliquots (providing triplicate data points for each sample) were transferred to 400 μl microcentrifuges containing 200 μl of 10% glycerol in HKR. Tubes were centrifuged for 2 minutes at 5,000 rpm, the tip containing the cell pellet cut off and radioactivity bound to the cells was determined.
Human recombinant BDNF and human recombinant NT-3 were obtained from Alomone Laboratories (Israel). The iodination, crosslinking, and binding experiments using BDNF and NT-3 were performed using the methods described above for NGF. Neurite outgrowth assays were performed as described in the presence of 4.0 nM NT-3 or 8.0 nM BDNF.

[1] = system: dorsal root ganglion (DRG) neurons; assay: NGF-dependent neurite growth of ED8 chick DRG neurons (FIG. 6, Terasaki plates); assay type: cell-based
Protocol: FIG. 6 is a graph showing the ability of R11 to inhibit the activity of NGF in vitro using a biological assay system. […] Dissociated cells enriched for sensory neurons were prepared from embryonic day 8 (ED8) chick dorsal root ganglion (DRG) as described (Sutter et al., J. Biol. Chem. 254: 5972-5982 (1979)). Neurons were seed into wells of Terasaki plates treated sequentially with poly-D-lysine and laminin at a density of 800-1000 cells/well in "synthetic" Dulbecco's modified Eagle medium (Bottenstein et al., Proc. Natl. Acad. Sci. USA 76: 514-517 (1979)) containing 1% fetal calf serum and NGF at […]. The cells were incubated with the additives indicated at 37° C. in a 5% CO2 atmosphere At 18-20 hours, the cells were fixed in 4% formaldehyde in phosphate-buffered saline and scored for neurite growth. The cells on the entire lower horizontal surface of the well were counted using an inverted microscope fitted with phase contrast optics. A neurite was scored if its caliber from origin to terminal was constant and its length was equal to or greater than 1.5 cell body diameters. Neurite growth was corrected for background (no NGF) growth in the presence and absence of peptide.
Such a profile is not typical of a competitive inhibitor. That is, a different dose response profile would be expected if R11 were simply competing with NGF for binding to a receptor. Neither of the less constrained synthetic Intermediates of R11, i.e., R11 (linear) or R11 (monocyclic), was as effective in blocking NGF-dependent neurite growth concentrations up to 200 μM.

TrkA receptor = assay: Inhibition of TrkA phosphorylation by R11 in PC12 cells (Example 3); assay type: cell-based, rat
Protocol: Referring to FIG. 7C, the ability of R11 to influence TrkA phosphorylation was determined by incubating 10^7 PC12 cells (prepared as described above) in one mL HKR buffer with 50 ng NGF and the indicated concentrations of peptides for 15 min at 37° C. The cells were isolated by centrifugation, solubilized in lysis buffer and the TrkA receptor isolated as described above. The TrkA immunoprecipitated was dissociated in SDS reducing sample buffer and electrophoresed using a 6% polyacrylamide gel. The gel was then transferred to PVDF membrane (BioRad), probed with horseradish peroxidase-conjugated anti phosphotyrosine (RC20; Transduction) and developed using ECL (Amersham). All procedures were carried out according to the manufacturers' instructions.

[2] = system: kindling-induced seizures; assay: Kindling (seizure development) in rats; assay type: in vivo, Male Long-Evans hooded rats; conditions: intraventricular infusion; peptide 45 μM, anti-NGF 100 μg/day
Protocol: The effect of the present neurotrophin-derived peptides on kindling was determined as follows.
Male Long-Evans hooded rats (300-400 g) were used. The animals were housed individually, maintained on an ad lib feeding schedule and kept on a 12 h on/12 h off light cycle. The rats were anaestetised with 0.1 mL per 100 g body weight of 100 mg/mL ketamine hydrochloride (Roger/STB Inc., London, Canada) and 0.05 mL per 100 g body weight of 20 mg/mL xylocaine 2% hydrochloride (Astra, Mississauga, Canada), and then placed in a stereotaxic holder. […] Following implantation of the electrode, a cannula (Alzet brain infusion kit, Alza Corp.) was implanted in the lateral ventricle, 5 mm below the skull surface, at 0.6 mm caudal to bregma and 1.3 mm lateral to the midline. It was firmly attached to the skull with dental cement and anchored with tee stainless steel screws. […] Histological examination of lateral ventricle sections was done to confirm that the cannula was correctly placed. […] There were five groups of test animals, 5 animals per peptide test group, 10 animals in the negative control group and 12 animals in the positive control group. […]
Following a three-day recovery, the kindling stimulations were started. […] Progression of kindling was monitored behaviorally and electrophysiologically by recording the behavioral seizure stages and the duration and magnitude of afterdischarges.

T1 sequence (P01139 122-239): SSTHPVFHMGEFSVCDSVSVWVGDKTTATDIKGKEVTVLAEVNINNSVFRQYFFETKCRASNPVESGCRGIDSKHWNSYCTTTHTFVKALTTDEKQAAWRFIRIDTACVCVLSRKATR

Compound | Crosslinking of 125I-NGF to larger complexes (BSA or ovalbumin) (NGF) | NGF monomer crosslinking by BS3 (NGF; 0.1 nM 125I-NGF, CaEDTA together with Zn2+) | NGF Protomer Conformation (active/inactive) (NGF; 100 μM) | Crosslinking of NGF promoters after His modification (DEPC) (NGF; DEPC-modified NGF) | NGF-induced neurite extension (DRG neurons) | % Maximum p75NTR binding, 125I-BDNF (p75^NTR) [% Maximum binding] | Block of NGF-mediated neurite growth ([1]; 100 μM) [%] | IC50 ([1]; ED8 chick DRG neurons, FIG. 6, read-out: IC50, inhibition of NGF-dependent neurite growth) [µM] | Block of NGF-mediated neurite growth ([1]; concentration similar to 200 μM) | NGF-induced TrkA phosphorylation (TrkA receptor; 200 μM, 50 ng NGF, 15 min at 37° C., PC12) | Basal TrkA phosphorylation (TrkA receptor; no NGF) | Delay of the onset of kindling (number of stimulations to stage-5 seizures) [2]
[Zn+2] [Zn^2+] | promoted | NGF monomer crosslinking was inhibited | active | not affected by Zn^2+; also recorded: abolished | inhibited neurite extension | 10.0 ± 4.5 |  |  |  |  |  | 
NH2 -Cys-Gly-Ser-Glu-Val-Pro-Asn-Ser-Ala-Arg-Cys-Cys-Val-Cys-OH (H-CGSEVPNSARCCVC-OH; disulfide 1-14, 11-12) [R11, bicyclic peptide of NGF residues 68-58/108-110, two disulfide bonds] |  |  |  |  |  |  | 70 | 10 | virtually all | abolished; also recorded: blocked | no influence | approximately equal to that of the anti-NGF IgG
